Legend:
Type in all cases: cell-based
[1] = tested on: Wheat embryogenic callus; assay: Tissue culture of wheat embryogenic callus on W2 medium containing niacinamide
Description: After the one day incubation the capacity of the transformed and control tissues to reduce 2,3,5-triphenyltetrazolium chloride (TTC) is measured e.g. by the following procedure which is modified from Towill and Mazur (supra): • incubate the tissues for 1 to 4 hours in K-phosphate buffer (pH 7.4) containing 10 mM TTC and 0.1% Tween20. […] The O.D. of the control extract is subtracted from the OD of the TTC-reacted extracts. In the above conditions 0.1 mM reduced TTC corresponds to an OD485 of 0.214 or OD545 of 1.025 (light path 1 cm). • the reducing capacity of the transformed plant line is compared to that of the control line. Wheat embryogenic callus was cultured on W2 medium (see Example 2).

[2] = tested on: Brassica napus hypocotyl explants; assay: Tissue culture of Brassica napus hypocotyl explants on A5 medium containing niacinamide
Description: Hypocotyl explants of Brassica napus were obtained, cultured and transformed essentially as described by De Block et al, 1989, Plant Physiol. 914:694-701 except for the following modifications: • hypocotyl explants were precultured for 3 days on A2 medium (MS, 0.5 g/l Mes (pH 5.7), 1.2% glucose, 0.5% agarose, 1 mg/l 2,4-D, 0.25 mg/l naphthalene acetic acid (NAA), 1 mg/l 6-benzylaminopurine (BAP)), […] MS, 0.5 g/l Mes (pH 5.7), 1.2% glucose, 0.1 mg/l NAA, 0.75 mg/l BAP, 0.01 mg/l giberellinic acid (GA3) • selection medium A5 was 0.5 g/l Mes (pH 5.7), 1.2% glucose, 40 mg/l adenine.SO4, 0.5 g/l polyvinyl-polypyrrolidone (PVP), 0.5% agarose, 0.1 mg/l NAA, 0.75 mg/l BAP, 0.01 mg/l GA3, 250 mg/l carbenicillin, 250 mg/l triacillin, 5 mg/l AgNO3. • regeneration medium A6 was MS, 0.5 g/l Mes (pH 5.7), 2% sucrose, 40 mg/l adenine.SO4, 0.5 g/l PVP, 0.5% agarose, 0.0025 mg/l BAP, 250 mg/l triacillin. • healthy shoots were transferred to 1 liter vessels containing rooting medium which was either A8 or A9; A8 consists of 100-130 ml half concentrated MS, 1% sucrose (pH 5.0), 1 mg/l isobutyric acid (IBA), 100 mg/l triacillin added to 300 ml perlite (final pH 6.2); A9 consists of half concentrated MS, 1.5% sucrose (pH 5.8) solidified with agar (0.6%)

[3] = tested on: cultured cells; assay: Optimal concentration of PARP inhibitor in the culture medium; settings: i.e. about 2 mM; incubation not longer than 14 days
Description: The concentration of the PARP inhibitor in the medium is also believed to have an effect on the inhibition of PARP, which varies depending on the nature of the cells (species, tissue explant, general culture conditions, etc.) However, within certain concentration ranges, the effect is minimal, especially when the cultured cells are not incubated for longer than 14 days. The optimal concentration range of PARP inhibitor in the medium may vary depending on the species from which the tissue, cell or cell culture is derived, but 250 mg/l (about 2 mM) is believed to be a suitable concentration for many purposes (e.g. for use with material derived from wheat). However, when nicotinamide is used in combination with plant material derived from rice, the concentration of nicotinamide should preferably be between 500 mg/l (about 4 mM) and 1000 mg/l (approx. 8 mM). On the other hand, when nicotinamide is used in combination with plant material derived from corn, the concentration of nicotinamide should preferably be 100 mg/l. […] The optimal concentration will depend on the nature of the specific PARP inhibitor used, particularly on its strength of inhibition (as measured by its Ki and/or by its percentage inhibition of PARP under standard conditions—Sims et al, supra). […]

[4] = after 4-5 days of incubation with niacinamide

Which results are given for `NC(=O)c1cccnc1` [niacinamide]?
growth of the tissue (rate relative to the normal rate) ([1]; 250 mg/l (approx. 2 mM) niacinamide in W2 medium, growth slowed after 4 days, rate after 4 weeks): approximately 30%; viability of the tissue ([1]; 250 mg/l niacinamide in W2 medium, at least one month): remained viable for extended periods of time; TTC-reducing capacity of the tissue [1, 4]: substantially decreased; growth after removal of niacinamide from the medium ([1]; niacinamide subsequently removed from the medium): started to grow normally again; anthocyanin production in tissue culture ([2]; A5 medium containing 250 mg/l niacinamide): no anthocyanin was produced; concentration of dehydroascorbate in the explants [2, 4]: drastically decreased; concentration of hydroxyl free radical in the explants [2, 4]: drastically decreased; percentage of cultured cells in G2 phase of the cell cycle ([2]; after a 4 day incubation in niacinamide containing medium, considerably increased): up to 45 % of all cells in the culture; optimal concentration in the culture medium [3]: approximately 250 mg/l
